Data: publication PMC8322138, “BRCA2 binding through a cryptic repeated motif to HSF2BP oligomers does not impact meiotic recombination” (Nature Communications, 2021)
Several values for one entry are separate records, joined by “and”; a condition that tells them apart may be missing. Equal entries are not always repeated.

T1: ARM domain of HSF2BP (Homo sapiens, UniProt O75031)
T1 construct: The armadillo domain of HSF2BP, from aa 122 to aa 334; 6xHis-TEV (N, cleaved yes); made in house; host or cells: E. coli BL21 DE3 Rosetta2
T1 sequence (O75031 122-334): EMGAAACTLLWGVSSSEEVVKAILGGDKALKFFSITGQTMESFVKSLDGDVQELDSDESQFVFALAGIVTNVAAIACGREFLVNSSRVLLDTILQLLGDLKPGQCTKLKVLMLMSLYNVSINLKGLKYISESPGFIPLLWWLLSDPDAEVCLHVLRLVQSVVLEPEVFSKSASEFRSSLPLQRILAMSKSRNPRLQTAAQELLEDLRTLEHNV

T2: Human full-length HSF2BP WT (human), O75031
T2 chain: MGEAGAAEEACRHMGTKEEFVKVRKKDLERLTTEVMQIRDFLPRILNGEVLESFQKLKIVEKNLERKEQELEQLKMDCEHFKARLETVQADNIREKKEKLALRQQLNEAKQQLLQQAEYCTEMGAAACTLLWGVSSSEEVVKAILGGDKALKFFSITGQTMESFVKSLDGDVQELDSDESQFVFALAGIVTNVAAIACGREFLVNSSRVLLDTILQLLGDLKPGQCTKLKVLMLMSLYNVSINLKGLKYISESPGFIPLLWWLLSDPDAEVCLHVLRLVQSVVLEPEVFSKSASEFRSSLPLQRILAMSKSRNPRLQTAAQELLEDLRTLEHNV


Key:
ARM domain of HSF2BP [1] = biological target: T1, ARM domain of HSF2BP; assay: SEC-MALS of ARM free or bound to F15X; format: physicochemical
Procedure: Size-exclusion chromatography (SEC) coupled to MALS was used in order to measure the molecular masses of the complexes in solution. Therefore, HSF2BP and ARM proteins were loaded in the presence and absence of the BRCA2 fragment F15X on a Superdex 200 10/300 GL (GE Healthcare) using a HPLC Shimadzu system coupled to MALS/QELS/UV/RI (Wyatt Technology). The chromatography buffer was 25 mM Tris-HCl buffer, pH 7.5, 250 mM NaCl, 5 mM β-mercaptoethanol. The proteins were injected at 0.8–1 mg/ml in 100 μl. Data were analyzed using the ASTRA software; a calibration was performed with BSA as a standard.

ARM domain of HSF2BP [2] = biological target: T1, ARM domain of HSF2BP; assay: ITC of BRCA2 fragments with HSF2BP armadillo domain; format: binding; conditions: for n (stoichiometry) / ΔG / −TΔS / ΔH (±error): 293 K
Description: Human full-length HSF2BP WT and R200T were expressed using a pETM11 (6xHis-TEV) expression vector in E. coli BL21 DE3 Rosetta2 cells, and purified as previously reported (Brandsma et al., Cell Rep 2019). The armadillo domain of HSF2BP, from aa 122 to aa 334, which we will further name ARM, was similarly expressed using a pETM11 (6xHis-TEV) expression vector in BL21 DE3 Rosetta2 cells and purified as full-length HSF2BP.
Human BRCA2 fragment F0 was expressed using a pET-22b expression vector as a fusion protein comprising BRCA2 from aa 2213 to aa 2342 (including mutation C2332T to avoid oxidation problems), a TEV site, a GB1 and 6xHis tag, in E. coli BL21 DE3 Star cells. The BRCA2 gene was optimized for expression in bacteria and synthesized by Genscript. In addition, smaller BRCA2 fragments were produced using the same strategy: FNMR and F15X corresponding to aa 2252 to aa 2342 and aa 2291 to aa 2343, respectively. The smallest fragment F15X∆12, from aa 2312 to aa 2342, was synthesized by Genecust.
ITC experiments were performed using a high-precision VP-ITC instrument (GE Healthcare) at 293 K. To characterize the interactions between HSF2BP and BRCA2 fragments (WT, variants), the proteins were dialyzed against 25 mM Tris pH 7.5, 250 mM NaCl, 5 mM β-mercaptoethanol. The HSF2BP (or ARM domain) was in the sample cell at 10–20 μM and was titrated by BRCA2 fragments at 40–100 μM, using 10 μL injections with 210 s intervals between each injection. The first 2 μL injection was ignored in the final data analysis. The integration of the peaks corresponding to each injection. the correction for the baseline and the fit were performed using the Origin 7.0 software provided by the manufacturer, to obtain the stoichiometry (N), dissociation constant (Kd), and enthalpy of complex formation (ΔH) for each interaction. Two replicates were performed for each experiment.

ARM domain of HSF2BP [3] = biological target: T1, ARM domain of HSF2BP; assay: SEC-SAXS of ARM bound to F15X; format: physicochemical
Procedure: SEC coupled to SAXS is available on the SWING beamline at synchrotron SOLEIL, in order to obtain a distance distribution corresponding to each sample in solution. The free HSF2BP protein as well as the complex between ARM and F15X were analyzed using a Bio SEC-3 column (Agilent) equilibrated in 25 mM Tris-HCl buffer, pH 7.5, 250 mM NaCl, and 5 mM β-mercaptoethanol. The proteins were loaded at a concentration of 6 and 10 mg/ml, in order to observe an elution peak at an OD280nm of 1 and 1.2 AU, respectively.

[4] = biological target: T2, Human full-length HSF2BP WT (human), …; assay: ITC; HSF2BP or ARM in the cell at 10-20 uM, BRCA2 fragment in the syringe at 40-100 uM; 293 K; 25 mM Tris pH 7.5, 250 mM NaCl, 5 mM beta-mercaptoethanol; two replicates

| Molecule | oligomeric state of ARM (ARM domain of HSF2BP [1]; SEC-MALS and SEC-SAXS) | molecular weight of species in solution (ARM domain of HSF2BP [1]; SEC-MALS, Superdex 200 10/300 GL, 25 mM Tris-HCl pH 7.5, 250 mM NaCl, 5 mM β-mercaptoethanol) [kDa] | n (stoichiometry) (ARM domain of HSF2BP [2]; pH 7.5, expt 1) | ΔG (ARM domain of HSF2BP [2]; pH 7.5, expt 1) [kcal/mol] | −TΔS (ARM domain of HSF2BP [2]; pH 7.5, expt 1) [kcal/mol] | ΔH (±error) (ARM domain of HSF2BP [2]; pH 7.5, expt 1, error in brackets) | n (stoichiometry) (ARM domain of HSF2BP [2]; pH 7.5, expt 2) | ΔG (ARM domain of HSF2BP [2]; pH 7.5, expt 2) [kcal/mol] | −TΔS (ARM domain of HSF2BP [2]; pH 7.5, expt 2) [kcal/mol] | ΔH (±error) (ARM domain of HSF2BP [2]; pH 7.5, expt 2, error in brackets) | affinity relative to F0 (ARM domain of HSF2BP [2]; compared with the affinity measured between ARM and F0) | Dmax of complex with ARM (ARM domain of HSF2BP [3]) [Å] | Rg of complex with ARM (ARM domain of HSF2BP [3]) [Å] | molecular weight of complex with ARM (ARM domain of HSF2BP [3]; Bio SEC-3, 25 mM Tris-HCl pH 7.5, 250 mM NaCl, theoretical mass of four ARM bound to two F15X 108 kDa) [kDa] | Kd [4] | dH [4] | stoichiometry N [4] |
| --- | --- | --- | --- | --- | --- | --- | --- | --- | --- | --- | --- | --- | --- | --- | --- | --- | --- |
| CC[C@H](C)[C@H](NC(=O)[C@H](CCCNC(=N)N)NC(=O)[C@H](CC(=O)O)NC(=O)[C@H](Cc1ccccc1)NC(=O)[C@H](CCC(=O)O)NC(=O)[C@@H](N)CC(N)=O)C(=O)N[C@H](C(=O)N[C@@H](CCC(=O)O)C(=O)N[C@@H](CC(N)=O)C(=O)N[C@@H](CCC(N)=O)C(=O)N[C@@H](CCC(=O)O)C(=O)N[C@@H](CCCCN)C(=O)N[C@@H](CO)C(=O)N[C@@H](CC(C)C)C(=O)N[C@@H](CCCCN)C(=O)N[C@@H](C)C(=O)N[C@@H](CO)C(=O)N[C@@H](CCCCN)C(=O)N[C@@H](CO)C(=O)N[C@H](C(=O)N1CCC[C@H]1C(=O)N[C@@H](CC(=O)O)C(=O)NCC(=O)N[C@H](C(=O)N[C@H](C(=O)N[C@@H](CCCCN)C(=O)N[C@@H](CC(=O)O)C(=O)N[C@@H](CCCNC(=N)N)C(=O)N[C@@H](CCCNC(=N)N)C(=O)N[C@@H](CC(C)C)C(=O)N[C@@H](Cc1ccccc1)C(=O)N[C@@H](CCSC)C(=O)N[C@@H](Cc1c[nH]cn1)C(=O)N[C@@H](Cc1c[nH]cn1)C(=O)N[C@H](C(=O)N[C@@H](CO)C(=O)N[C@@H](CC(C)C)C(=O)N[C@@H](CCC(=O)O)C(=O)N1CCC[C@H]1C(=O)N[C@H](C(=O)N[C@H](C(=O)N[C@H](C(=O)N[C@H](C(=O)N1CCC[C@H]1C(=O)N[C@@H](Cc1ccccc1)C(=O)N[C@@H](CCCNC(=N)N)C(=O)N[C@H](C(=O)N[C@H](C(=O)N[C@@H](CCCCN)C(=O)N[C@@H](CCC(=O)O)C(=O)N[C@@H](CCCNC(=N)N)C(=O)N[C@@H](CCC(N)=O)C(=O)N[C@@H](CCC(=O)O)C(=O)O)[C@@H](C)O)[C@@H](C)O)C(C)C)[C@@H](C)O)[C@@H](C)O)[C@@H](C)CC)C(C)C)[C@@H](C)CC)[C@@H](C)O)[C@@H](C)O)[C@@H](C)CC [F15X] | tetrameric | 94 | 0.33 | -10.6 | -0.4 | −10.2 (0.1) kcal/mol | 0.40 | -10.7 | -1.5 | −9.2 (0.1) kcal/mol | about threefold higher | 104 | 34 | 109 |  |  |  |
| DGTIKDRRLFMHHVSLEPITTVPFRTTKERQ (modifications not checked) [BRCA2 peptide F15X∆12 (D2312-E2342)] |  |  |  |  |  |  |  |  |  |  |  |  |  |  | 2100 nM and 1500 nM | -1.8 kcal/mol and -1.7 kcal/mol | 0.9 and 0.89 |
